Measured values from US12545677B2, “Compounds useful as factor XIa inhibitors” (JANSSEN PHARMACEUTICA NV, priority 2020, dated 2026).

Tests used:
Assay in all cases: Human liver microsomes CYP450 cocktail inhibition assay
Type in all cases: in vitro ADME
CYP2C8 = target: T1, CYP2C8 (Homo sapiens, UniProt P10632); details: HLM 0.2 mg/ml, 10 mins; read-out: Calculated IC50, HLM 2C8
T1 construct: Frozen human liver microsomes (HLM) were thawed at 37° C; from tissue; host or cells: human liver microsomes
T1 sequence (P10632 1-490): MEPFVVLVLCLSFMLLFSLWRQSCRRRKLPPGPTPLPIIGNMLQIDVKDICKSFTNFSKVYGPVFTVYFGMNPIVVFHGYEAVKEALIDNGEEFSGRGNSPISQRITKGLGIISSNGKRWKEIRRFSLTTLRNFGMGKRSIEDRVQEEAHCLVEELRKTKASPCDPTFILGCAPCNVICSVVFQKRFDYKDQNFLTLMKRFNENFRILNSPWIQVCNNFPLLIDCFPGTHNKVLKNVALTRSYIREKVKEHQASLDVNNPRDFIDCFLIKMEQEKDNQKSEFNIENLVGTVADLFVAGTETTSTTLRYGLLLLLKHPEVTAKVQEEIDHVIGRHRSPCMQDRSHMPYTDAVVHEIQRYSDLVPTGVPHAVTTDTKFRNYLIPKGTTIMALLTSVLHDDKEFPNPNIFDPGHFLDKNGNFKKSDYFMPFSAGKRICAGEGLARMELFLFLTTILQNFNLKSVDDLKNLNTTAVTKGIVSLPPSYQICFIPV
Excerpt: (§1) Human Liver Microsomes CYP450 Cocktail Inhibition Assay
(§2) The cocktail DDI assay was used to evaluate test compound(s) for potential to cause drug-drug interactions via inhibition of clinically important P450 isoforms (CYP1A2, 2C8, 2C9, 2C19, 2D6, and 3A4) in early discovery. Discrimination of the inhibitory potential of the test compound towards each isoform was achieved by using a cocktail of specific probe substrates which are known to be selectively metabolized to defined metabolites by the isoforms under investigation. For example, dextromethorphan is known to be demethylated exclusively by the 2D6 isoform. Co-incubation of the probe substrates in human liver microsomes (HLM) with the test compound(s) at a range of inhibitor concentrations allows calculation of IC50 values for multiple CYP isoforms simultaneously and therefore offers a higher throughput compared to a traditional single probe assay.
(§3) Methods and Procedures: Final protein concentration in the incubation was 0.2 mg/ml and incubation time was 10 mins. The final total solvent in the incubation was 0.15% DMSO and 0.8% acetonitrile. The assay was automated on a Beckman Biomek FX automated liquid handler with multi-channel pipetting tools (8-channel and 96-channel), on deck reagent cooling capabilities and integrated automated Cytomat incubator (37° C.) with plate shaking facilities (Kendro).
(§4) Test compounds were supplied as 5 mM DMSO stock solutions. 0.1 M Phosphate buffer (pH7.4) was prepared in house using Na2HPO4·12H2O and KH2PO4.
(§5) Frozen human liver microsomes (HLM) were thawed at 37° C. while agitating regularly until the whole volume was thawed, then held on ice. Based on the protein concentration of the HLM batch, the suspension was further diluted in assay buffer and the probe substrate mixture (substrate for each CYP isoform) to yield the final protein concentration of 0.2 mg/mL.
(§6) Probe substrates were prepared separately in assay buffer (phenacetin, tolbutamide, S-mephenytoin, dextromethorphan) or water (amodiaquine, midazolam). These were combined (at the appropriate conc per substrate) with HLM and assay buffer to yield the final Enzyme/Substrate mix.
(§7) The final total solvent in the incubation was 0.15% DMSO and 0.8% acetonitrile. NADPH (5.27 mM) was prepared as a solution in assay buffer (Room Temp). The quenching solution containing deuterated analogues of each of the seven probe substrate metabolites was dissolved at an appropriate concentration in acetonitrile.
(§8) Assay procedure: Samples for incubation were prepared by combining appropriate volumes of Enzyme/Substrate mix (80 μl) and stock solutions of test or reference inhibitors (1 μl solutions added from a dilution series). Following a pre-incubation period (typically, 10 minutes), the reaction was initiated by the addition of NADPH solution (19 μl, 5.27 mM). The samples were incubated at 37° C. for 10 mins. The incubations were quenched by the addition of 1.6 volumes of chilled quenching solution. The incubations were then centrifuged for 10 minutes at 4000 rpm at 4° C. A defined volume of the supernatant (S/N) was transferred into a separate container and diluted with water (S/N: Water=60 μL/180 μL). Each sample was injected onto a UPLC/MS system using an LC/MS method selective for the simultaneous measurement of all seven probe substrate metabolites (and associated deuterated internal standards).
(§9) Calculations and Formulas: Percentage activity was calculated as % activity=(Ri/R)*100 • where Ri and R were the metabolite to internal standard peak area ratios in the presence and absence of TC, respectively. The percentage activity data were then plotted against log (TC concentration) and a curve was fitted to the data to return the IC50 using a data reduction tool within 3DX. […]

CYP3A4 = target: T2, CYP3A4 (Homo sapiens, UniProt P08684); details: HLM 0.2 mg/ml, 10 mins; read-out: Calculated IC50, HLM 3A4
T2 construct: Frozen human liver microsomes (HLM) were thawed at 37° C; from tissue; host or cells: human liver microsomes
T2 sequence (P08684 whole entry): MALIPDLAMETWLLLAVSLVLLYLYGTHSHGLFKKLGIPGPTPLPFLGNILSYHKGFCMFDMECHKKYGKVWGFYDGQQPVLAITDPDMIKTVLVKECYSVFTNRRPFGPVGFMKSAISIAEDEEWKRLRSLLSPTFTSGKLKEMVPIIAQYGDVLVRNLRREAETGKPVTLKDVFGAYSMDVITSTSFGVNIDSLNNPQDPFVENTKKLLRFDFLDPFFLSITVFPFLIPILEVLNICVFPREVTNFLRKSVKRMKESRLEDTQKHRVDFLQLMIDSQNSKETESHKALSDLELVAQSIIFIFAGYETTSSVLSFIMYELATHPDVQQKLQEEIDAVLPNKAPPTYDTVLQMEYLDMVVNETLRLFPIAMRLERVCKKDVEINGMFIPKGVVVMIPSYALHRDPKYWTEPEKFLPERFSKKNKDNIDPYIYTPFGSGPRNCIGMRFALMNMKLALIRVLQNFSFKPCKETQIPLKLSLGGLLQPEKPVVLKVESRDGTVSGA
Excerpt: as §1, §2, §3, §4, §5, §6, §7, §8, §9

CYP1A2 = target: T3, CYP1A2 (Homo sapiens, UniProt P05177); details: HLM 0.2 mg/ml, 10 mins; read-out: Calculated IC50, HLM 1A2
T3 construct: Frozen human liver microsomes (HLM) were thawed at 37° C; from tissue; host or cells: human liver microsomes
T3 sequence (P05177 1-516): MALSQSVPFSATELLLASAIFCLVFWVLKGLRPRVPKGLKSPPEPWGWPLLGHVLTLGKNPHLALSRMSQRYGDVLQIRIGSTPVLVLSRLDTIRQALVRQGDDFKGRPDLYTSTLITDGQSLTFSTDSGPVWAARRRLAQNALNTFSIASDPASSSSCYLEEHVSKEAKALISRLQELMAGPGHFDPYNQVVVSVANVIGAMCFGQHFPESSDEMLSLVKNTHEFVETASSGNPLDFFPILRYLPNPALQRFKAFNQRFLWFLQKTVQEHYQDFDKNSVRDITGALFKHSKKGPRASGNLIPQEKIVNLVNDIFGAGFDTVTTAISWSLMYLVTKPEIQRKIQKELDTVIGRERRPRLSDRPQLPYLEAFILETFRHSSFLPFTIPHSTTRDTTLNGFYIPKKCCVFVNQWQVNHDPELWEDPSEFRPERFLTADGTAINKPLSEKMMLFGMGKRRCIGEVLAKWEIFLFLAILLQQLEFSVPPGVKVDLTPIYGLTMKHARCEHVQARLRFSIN
Excerpt: as §1, §2, §3, §4, §5, §6, §7, §8, §9

CYP2C19 = target: T4, CYP2C19 (Homo sapiens, UniProt P33261); details: HLM 0.2 mg/ml, 10 mins; read-out: Calculated IC50, HLM 2C19
T4 construct: Frozen human liver microsomes (HLM) were thawed at 37° C; from tissue; host or cells: human liver microsomes
T4 sequence (P33261 whole entry): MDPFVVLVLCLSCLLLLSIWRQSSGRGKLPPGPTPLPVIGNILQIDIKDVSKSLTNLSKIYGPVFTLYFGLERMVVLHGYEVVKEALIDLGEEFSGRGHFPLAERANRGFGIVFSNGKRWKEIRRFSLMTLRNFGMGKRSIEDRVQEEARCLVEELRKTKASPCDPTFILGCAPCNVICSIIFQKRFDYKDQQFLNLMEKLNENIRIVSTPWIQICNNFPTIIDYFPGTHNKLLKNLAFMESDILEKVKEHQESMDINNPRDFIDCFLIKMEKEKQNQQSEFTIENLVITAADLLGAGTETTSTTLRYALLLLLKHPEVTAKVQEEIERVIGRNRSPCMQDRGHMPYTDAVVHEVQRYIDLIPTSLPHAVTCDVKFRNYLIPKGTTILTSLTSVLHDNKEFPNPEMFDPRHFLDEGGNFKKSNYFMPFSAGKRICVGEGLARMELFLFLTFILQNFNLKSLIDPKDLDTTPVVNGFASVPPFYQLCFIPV
Excerpt: as §1, §2, §3, §4, §5, §6, §7, §8, §9

CYP2D6 = target: T5, CYP2D6 (Homo sapiens, UniProt P10635); details: HLM 0.2 mg/ml, 10 mins; read-out: Calculated IC50, HLM 2D6
T5 construct: Frozen human liver microsomes (HLM) were thawed at 37° C; from tissue; host or cells: human liver microsomes
T5 sequence (P10635 whole entry): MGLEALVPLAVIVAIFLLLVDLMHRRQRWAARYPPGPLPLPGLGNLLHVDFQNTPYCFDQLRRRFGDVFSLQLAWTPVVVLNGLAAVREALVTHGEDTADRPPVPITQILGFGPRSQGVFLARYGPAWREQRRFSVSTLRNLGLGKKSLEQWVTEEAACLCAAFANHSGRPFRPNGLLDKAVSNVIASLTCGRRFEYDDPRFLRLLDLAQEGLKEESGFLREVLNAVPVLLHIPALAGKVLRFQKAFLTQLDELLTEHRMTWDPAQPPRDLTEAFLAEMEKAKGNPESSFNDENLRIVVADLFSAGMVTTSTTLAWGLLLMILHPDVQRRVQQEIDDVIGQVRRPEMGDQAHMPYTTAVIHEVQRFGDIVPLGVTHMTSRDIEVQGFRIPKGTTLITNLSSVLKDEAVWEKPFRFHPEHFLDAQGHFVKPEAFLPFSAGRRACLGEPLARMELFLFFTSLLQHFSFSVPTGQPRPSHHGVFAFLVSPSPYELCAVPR
Excerpt: as §1, §2, §3, §4, §5, §6, §7, §8, §9

CYP2C9 = target: T6, CYP2C9 (Homo sapiens, UniProt P11712); details: HLM 0.2 mg/ml, 10 mins; read-out: Calculated IC50, HLM 2C9
T6 construct: Frozen human liver microsomes (HLM) were thawed at 37° C; from tissue; host or cells: human liver microsomes
T6 sequence (P11712 whole entry): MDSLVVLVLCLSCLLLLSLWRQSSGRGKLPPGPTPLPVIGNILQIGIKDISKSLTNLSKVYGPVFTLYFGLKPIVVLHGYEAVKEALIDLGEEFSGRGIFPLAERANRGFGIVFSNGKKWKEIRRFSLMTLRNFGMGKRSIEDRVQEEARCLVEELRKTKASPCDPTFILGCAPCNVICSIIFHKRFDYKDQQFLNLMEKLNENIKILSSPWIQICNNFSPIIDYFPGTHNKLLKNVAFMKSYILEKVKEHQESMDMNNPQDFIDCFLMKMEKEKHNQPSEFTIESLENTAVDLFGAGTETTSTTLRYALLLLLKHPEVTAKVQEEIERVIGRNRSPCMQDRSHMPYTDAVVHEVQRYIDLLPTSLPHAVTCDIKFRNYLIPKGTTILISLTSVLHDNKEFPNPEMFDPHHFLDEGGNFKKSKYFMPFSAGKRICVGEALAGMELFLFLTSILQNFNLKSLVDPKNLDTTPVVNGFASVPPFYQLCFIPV
Excerpt: as §1, §2, §3, §4, §5, §6, §7, §8, §9

Q: O=C1C=C(c2c(-n3cnnn3)ccc(Cl)c2F)C[C@H]2CC[C@@H](c3ncc(-c4ccnc(CO)c4F)[nH]3)N12 [Compound of formula (I-A), (3S,8aR)-7-(3-Chloro-2-fluoro-6-(1H-tetrazol-1-yl)phenyl)-3-(5-(3-fluoro-2-(hydroxymethyl)pyridin-4-yl)-1H-imidazol-2-yl)-2,3,8,8a-tetrahydroindolizin-5(1H)-one] was tested. Which IC50 (CYP2C8) did it give?
A: > 20 µM

Q: And the IC50 (CYP3A4)?
A: 14.4 µM

Q: And the IC50 (CYP1A2)?
A: > 20 µM

Q: And the IC50 (CYP2C19)?
A: > 20 µM

Q: And the IC50 (CYP2D6)?
A: > 20 µM

Q: What about the IC50 (CYP2C9) of the same compound?
A: > 20 µM
